13 compounds from PubChem BioAssay AID328 (DTP/NCI, 2004) can be followed below.

The test relates to BDF1 mice, P388 leukemia ip, median survival T/C. The experiment in a line: NCI In Vivo Anticancer Drug Screen. Data for tumor model P388 Leukemia (intraperitoneal) in B6D2F1 (BDF1) mice. The note with it: endpoint: median survival time, higher = longer survival. The method, boiled down: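 Steps: implant the tumour, treat one group with compound and another with vehicle, record survival, then divide treated by control.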

[1] abbreviates: dose: 6.25 mg/kg/injection, schedule: Q01DX009 (ip), vehicle: saline.
The mark [2] stands for this setting: dose: 6.25 mg/kg/injection, schedule: Q04DX003 (ip), vehicle: saline.
Where [3] appears, read: dose: 50.0 mg/kg/injection, schedule: Q04DX003 (ip), vehicle: saline.
The mark [4] stands for this setting: dose: 100.0 mg/kg/injection, schedule: Q04DX003 (ip), vehicle: saline.
[5] abbreviates: dose: 25.0 mg/kg/injection, schedule: Q01DX009 (ip), vehicle: Klucel (hydroxypropylcellulose) (HPC).
Where [6] appears, read: dose: 50.0 mg/kg/injection, schedule: Q01DX009 (ip), vehicle: Klucel (hydroxypropylcellulose) (HPC).
Setting [7] is: dose: 100.0 mg/kg/injection, schedule: Q01DX009 (ip), vehicle: Klucel (hydroxypropylcellulose) (HPC).
Where [8] appears, read: dose: 200.0 mg/kg/injection, schedule: Q01DX009 (ip), vehicle: Klucel (hydroxypropylcellulose) (HPC).
Setting [9] is: dose: 100.0 mg/kg/injection, schedule: Q01DX009 (ip), vehicle: saline with Tween-80.
Where [10] appears, read: dose: 100.0 mg/kg/injection, schedule: Q04DX003 (ip), vehicle: saline with Tween-80.
Setting [11] is: dose: 200.0 mg/kg/injection, schedule: Q01DX009 (ip), vehicle: saline with Tween-80.
The mark [12] stands for this setting: dose: 200.0 mg/kg/injection, schedule: Q04DX003 (ip), vehicle: saline with Tween-80.
The mark [13] stands for this setting: dose: 50.0 mg/kg/injection, schedule: Q01DX009 (ip), vehicle: saline with Tween-80.

Where “and” joins values, the source holds several entries; their conditions need not be identical. Equal values may be shown once. Toxic doses and inconclusive results are not listed.

Turning to `CC1CN1CC(O)C(O)CN1CC1C` (stereo unspecified), the T/C is 100 % of control (dose: 0.09 mg/kg/injection, schedule: Q04DX003 (ip), vehicle: saline); 103 % of control (dose: 0.19 mg/kg/injection, schedule: Q04DX003 (ip), vehicle: saline); 165 % of control (dose: 0.78 mg/kg/injection, schedule: Q01DX009 (ip), vehicle: saline); 200 % of control (dose: 0.78 mg/kg/injection, schedule: Q04DX003 (ip), vehicle: saline); 225 % of control (dose: 0.8 mg/kg/injection, schedule: Q01DX009 (ip), vehicle: saline with Tween-80); 241 % of control (dose: 1.2 mg/kg/injection, schedule: Q01DX009 (ip), vehicle: saline with Tween-80). Further, the T/C (dose: 1.3 mg/kg/injection, schedule: Q04DX003 (ip), vehicle: saline) was 170 % of control; the T/C (dose: 1.56 mg/kg/injection, schedule: Q01DX009 (ip), vehicle: saline) was 203 % of control; the T/C (dose: 1.56 mg/kg/injection, schedule: Q04DX003 (ip), vehicle: saline) was 229 % of control and 181 % of control; the T/C (dose: 1.8 mg/kg/injection, schedule: Q01DX009 (ip), vehicle: saline with Tween-80) was 250 % of control; the T/C (dose: 2.0 mg/kg/injection, schedule: Q01DX009 (ip), vehicle: saline) was 250 % of control; the T/C (dose: 3.0 mg/kg/injection, schedule: Q01DX009 (ip), vehicle: saline) was 250 % of control. Also, the T/C was 203 % of control (dose: 3.12 mg/kg/injection, schedule: Q01DX009 (ip), vehicle: saline); 222 % of control (dose: 3.12 mg/kg/injection, schedule: Q04DX003 (ip), vehicle: saline); 236 % of control (dose: 3.3 mg/kg/injection, schedule: Q04DX003 (ip), vehicle: saline); 200 % of control (dose: 4.5 mg/kg/injection, schedule: Q04DX003 (ip), vehicle: saline); 295 % of control (dose: 5.0 mg/kg/injection, schedule: Q04DX003 (ip), vehicle: saline); 95 % of control under setting [1]. The T/C is 231 % of control under setting [2]; 259 % of control (dose: 6.6 mg/kg/injection, schedule: Q04DX003 (ip), vehicle: saline); 86 % of control (dose: 10.0 mg/kg/injection, schedule: Q04DX003 (ip), vehicle: saline).
Turning to `O=C(Nc1ccc(Cl)c(C(F)(F)F)c1)Nc1ccc(Oc2ccc(Cl)cc2)cc1S(=O)(=O)O`, the T/C by setting is: under setting [3], 100 % of control; under setting [4], 95 % of control; (dose: 200.0 mg/kg/injection, schedule: Q04DX003 (ip), vehicle: saline) 95 % of control.
On to `C=CC[Se]c1nc(N)nc2c1ncn2C1OC(CO)C(O)C1O` (stereo unspecified), for which the T/C was 105 % of control under setting [1]; 100 % of control under setting [2]; 111 % of control (dose: 12.5 mg/kg/injection, schedule: Q01DX009 (ip), vehicle: saline); 100 % of control (dose: 12.5 mg/kg/injection, schedule: Q04DX003 (ip), vehicle: saline); 100 % of control (dose: 25.0 mg/kg/injection, schedule: Q01DX009 (ip), vehicle: saline); 95 % of control and 104 % of control (dose: 25.0 mg/kg/injection, schedule: Q04DX003 (ip), vehicle: saline). Moreover, the T/C by setting is: under setting [3], 90 % of control; under setting [4], 90 % of control.
`COc1ccc(Cc2ccc(O)cc2)cc1`: the T/C was 100 % of control (dose: 100.0 mg/kg/injection, schedule: Q04DX003 (ip), vehicle: other); 119 % of control (dose: 200.0 mg/kg/injection, schedule: Q04DX003 (ip), vehicle: other); 119 % of control (dose: 400.0 mg/kg/injection, schedule: Q04DX003 (ip), vehicle: other).
As to `O=C1CCCc2ccccc2N1`, the T/C is 100 % of control under setting [5]; 95 % of control under setting [6]; 91 % of control under setting [7]; 95 % of control (dose: 100.0 mg/kg/injection, schedule: Q04DX003 (ip), vehicle: Klucel (hydroxypropylcellulose) (HPC)); 91 % of control under setting [8]; 100 % of control (dose: 200.0 mg/kg/injection, schedule: Q04DX003 (ip), vehicle: Klucel (hydroxypropylcellulose) (HPC)). Further, the T/C is 91 % of control (dose: 400.0 mg/kg/injection, schedule: Q01DX009 (ip), vehicle: Klucel (hydroxypropylcellulose) (HPC)) and 100 % of control (dose: 400.0 mg/kg/injection, schedule: Q04DX003 (ip), vehicle: Klucel (hydroxypropylcellulose) (HPC)).
Take `CCNC(C)(C)C(SSS)c1cccs1` (stereo unspecified): the T/C is, setting by setting: under setting [9], 112 % of control; under setting [10], 100 % of control; under setting [11], 120 % of control; under setting [12], 122 % of control; (dose: 400.0 mg/kg/injection, schedule: Q04DX003 (ip), vehicle: saline with Tween-80) 118 % of control.
For `Nc1nc(N)c2nc(/C=C/c3ccc4c(c3)OCO4)cnc2n1`, the T/C reads like this: under setting [13], 88 % of control; under setting [9], 88 % of control; under setting [11], 88 % of control.
On to `Nc1nc2ncc(CNc3ccc(C(=O)NC(CCC(=O)O)C(=O)O)cc3)nc2c(=O)[nH]1` (stereo unspecified), for which the T/C is 100 % of control (dose: 12.5 mg/kg/injection, schedule: Q01DX009 (ip), vehicle: saline with Tween-80); 106 % of control (dose: 25.0 mg/kg/injection, schedule: Q01DX009 (ip), vehicle: saline with Tween-80); 107 % of control under setting [13]; 100 % of control (dose: 50.0 mg/kg/injection, schedule: Q01DX010 (ip), vehicle: saline).
With `Cc1nc2ccccc2nc1CC(=O)c1ccccc1`, the T/C is 112 % of control under setting [13], 104 % of control under setting [9] and 99 % of control under setting [11].
As for `CN1C(=O)C(C2(C3C(=O)N(C)C(=O)N(C)C3=O)C(=O)N(C)C(=O)N(C)C2=O)C(=O)N(C)C1=O`, the T/C runs as follows: (dose: 100.0 mg/kg/injection, schedule: Q01DX001 (ip), vehicle: saline with Tween-80) 108 % of control; (dose: 200.0 mg/kg/injection, schedule: Q01DX001 (ip), vehicle: saline with Tween-80) 104 % of control; (dose: 400.0 mg/kg/injection, schedule: Q01DX001 (ip), vehicle: saline with Tween-80) 102 % of control.
On to `Cc1cccc(C)c1NC(=O)N(CCCl)N=O`, for which the T/C is 159 % of control (dose: 0.88 mg/kg/injection, schedule: Q01DX009 (ip), vehicle: saline with Tween-80); 159 % of control (dose: 1.32 mg/kg/injection, schedule: Q01DX009 (ip), vehicle: saline with Tween-80); 204 % of control (dose: 2.0 mg/kg/injection, schedule: Q01DX009 (ip), vehicle: saline with Tween-80); 200 % of control (dose: 3.0 mg/kg/injection, schedule: Q01DX009 (ip), vehicle: saline with Tween-80); 86 % of control (dose: 12.5 mg/kg/injection, schedule: Q04DX003 (ip), vehicle: saline with Tween-80); 109 % of control (dose: 25.0 mg/kg/injection, schedule: Q04DX003 (ip), vehicle: saline with Tween-80).
Turning to `O=C(Nc1cccc(C(F)(F)F)c1)Nc1nccs1`, the T/C runs as follows: under setting [5], 121 % of control; under setting [6], 111 % of control; under setting [7], 102 % of control; under setting [8], 104 % of control.
Turning to `O=C(O)c1ccc(-c2ccccc2)cc1`, the T/C under setting [13] is 100 % of control; the T/C under setting [9] is 104 % of control; the T/C under setting [10] is 104 % of control; the T/C under setting [11] is 95 % of control; the T/C under setting [12] is 104 % of control.
